Experimental data published in US8143254B2, “Methods for modulating ion channels” (Cornell Research Foundation, Inc., priority 2005, dated 2012).

System: Kv3.4
Experiment: TEVC of X. laevis oocytes expressing Kv3.4
Type: cell-based
Details: for mean inhibition at 0 mV relative to +50 mV: Kv3.4, voltage dependence of block
Text: Kv2.1 mutants were constructed using the QuickChange Multi Site-Directed Mutagenesis Kit (Stratagene, La Jolla, Calif.). […] For oocyte expression, Kv3.4 was in pBF1, Kv4.2 was in pRAT. cRNA transcripts were produced from SacII-linearized (Kv2.1), Mlullinearized (Kv3.4) and Not1-linearized (Kv4.2) DNA templates using the T3 (Kv2.1), SP6 (Kv3.4) and T7 (Kv4.2) mMessage mMachine kits (Ambion, Austin, Tex.). cRNA was quantified by spectrophotometry and its size integrity verified by gel electophoresis. Defolliculated stage V and VI Xenopus laevis oocytes (purchased from Nasco, Grand Island, N.Y.) were injected with 5 ng of cRNA encoding Kv2.1, Kv3.4 or Kv4.2. Chinese Hamster Ovary (CHO) cells were transfected with 0.25 μg Kv2.1 cDNA, 2 μg blank plasmid and 2 μg Green fluorescent Protein in pBOB using Supetfect transfection reagent (Qiagen) 24 hours before whole-cell voltage clamp studies.
Oocytes were bathed in a small-volume Warner oocyte bath and viewed with a Fisher dissection microscope. Bath solution for whole-cell oocyte recordings was (in mM): 96 NaCl, 4 KCl, 0.7 MgCl2, 1 CaCl2, 10 HEPES (pH 7.4); whole-cell oocyte TEVC pipettes were of 0.2-2 M resistance when filled with 3 M KCl. Experiments were performed 24-48 hours after cRNA injection. For assessment of current-voltage relationships in the absence or presence of dabco derivatives, oocytes were held at −80 mV, stepped for 2 seconds at voltages between −80 mV and +60 mV in 20 mV steps (Kv2.1) or between −80 and +50 mV in 10 mV steps (Kv3.4), then held for 500 ms at −40 mV before returning to the holding potential. For assessment of block during wash-in of dabco derivatives at a single voltage, oocytes were held at −80 mV, and repetitively stepped to 0 mV for 2 s with an interpulse interval of 10 s or 60 s as indicated. A range of concentrations of dabco or dabco derivatives were washed in via the bath solution during repetitive single-voltage pulses (after an initial period of 5 pulses with control solution to ensure current stabilization) until equilibrium block was achieved, to establish dose-responses. […] Washout was performed after the highest concentration of blocker was washed in. In cases where washout was achieved, only those recordings in which current returned to within 10% of original current level were used for construction of dose-response curves. […] As controls for this protection analysis, JC638.2a or MTSET were washed in alone until equilibrium block, then washed out.
Data analysis: Current-voltage relationships were obtained by measuring peak current during depolarizing pulses. Inhibition constants for DABCO blockers were calculated after generating a dose response curve by fitting with a logistic dose-response function y=A2+[A1−A2/1+(x/x0)^p], where A1 is the maximum response plateau, A2 is the minimum response plateau, x is drug concentrator, x0 is the IC50, and p the Hill slope. Data analysis was performed using […] 9 (Axon Instruments, Foster City, Calif.) and tabulated in Excel 5.0. Graphs were generated using Origin 6.1. Data are expressed as mean±SEM, with n specifying the number of independent experiments. Statistical significance was assessed by one-way ANOVA with p<0.05 being indicative of significance.

| SMILES | inhibition of Kv3.4 (1 μM) | inhibition of Kv3.4 (5 mM) | mean inhibition at 0 mV relative to +50 mV [fold] | sensitivity of Kv3.4 channels to compound relative to externally-applied TEA (externally applied) [fold] | inhibition of Kv3.4 (50 μM) | inhibition of Kv3.4 (250 μM) |
| --- | --- | --- | --- | --- | --- | --- |
| CCCCCCCCCCCCCCCC[N+]12CCN(CC1)CC2 [TA279, 1-aza-4-azonia-4-hexadecylbicyclo[2.2.2]octane] | inhibiting | almost complete inhibition | 1.5 | 500 | – | – |
| CCCCCCCCCCCC[N+]12CCN(CC1)CC2 [JE188, 1-aza-4-azonia-4-dodecylbicyclo[2.2.2]octane] | – | – | 2 | – | significantly inhibited | almost complete inhibition |
